Measurements as given in US9663508B2, “Biaryl acyl-sulfonamide compounds as sodium channel inhibitors” (AMGEN INC., priority 2013, dated 2017).

Target: human Nav1.7 (Homo sapiens (Human), UniProt Q15858)
Assay: Nav 1.7 in vitro PatchXpress (PX) assay
Type: cell-based
Settings: not given

Sequence of human Nav1.7 (Q15858 whole entry): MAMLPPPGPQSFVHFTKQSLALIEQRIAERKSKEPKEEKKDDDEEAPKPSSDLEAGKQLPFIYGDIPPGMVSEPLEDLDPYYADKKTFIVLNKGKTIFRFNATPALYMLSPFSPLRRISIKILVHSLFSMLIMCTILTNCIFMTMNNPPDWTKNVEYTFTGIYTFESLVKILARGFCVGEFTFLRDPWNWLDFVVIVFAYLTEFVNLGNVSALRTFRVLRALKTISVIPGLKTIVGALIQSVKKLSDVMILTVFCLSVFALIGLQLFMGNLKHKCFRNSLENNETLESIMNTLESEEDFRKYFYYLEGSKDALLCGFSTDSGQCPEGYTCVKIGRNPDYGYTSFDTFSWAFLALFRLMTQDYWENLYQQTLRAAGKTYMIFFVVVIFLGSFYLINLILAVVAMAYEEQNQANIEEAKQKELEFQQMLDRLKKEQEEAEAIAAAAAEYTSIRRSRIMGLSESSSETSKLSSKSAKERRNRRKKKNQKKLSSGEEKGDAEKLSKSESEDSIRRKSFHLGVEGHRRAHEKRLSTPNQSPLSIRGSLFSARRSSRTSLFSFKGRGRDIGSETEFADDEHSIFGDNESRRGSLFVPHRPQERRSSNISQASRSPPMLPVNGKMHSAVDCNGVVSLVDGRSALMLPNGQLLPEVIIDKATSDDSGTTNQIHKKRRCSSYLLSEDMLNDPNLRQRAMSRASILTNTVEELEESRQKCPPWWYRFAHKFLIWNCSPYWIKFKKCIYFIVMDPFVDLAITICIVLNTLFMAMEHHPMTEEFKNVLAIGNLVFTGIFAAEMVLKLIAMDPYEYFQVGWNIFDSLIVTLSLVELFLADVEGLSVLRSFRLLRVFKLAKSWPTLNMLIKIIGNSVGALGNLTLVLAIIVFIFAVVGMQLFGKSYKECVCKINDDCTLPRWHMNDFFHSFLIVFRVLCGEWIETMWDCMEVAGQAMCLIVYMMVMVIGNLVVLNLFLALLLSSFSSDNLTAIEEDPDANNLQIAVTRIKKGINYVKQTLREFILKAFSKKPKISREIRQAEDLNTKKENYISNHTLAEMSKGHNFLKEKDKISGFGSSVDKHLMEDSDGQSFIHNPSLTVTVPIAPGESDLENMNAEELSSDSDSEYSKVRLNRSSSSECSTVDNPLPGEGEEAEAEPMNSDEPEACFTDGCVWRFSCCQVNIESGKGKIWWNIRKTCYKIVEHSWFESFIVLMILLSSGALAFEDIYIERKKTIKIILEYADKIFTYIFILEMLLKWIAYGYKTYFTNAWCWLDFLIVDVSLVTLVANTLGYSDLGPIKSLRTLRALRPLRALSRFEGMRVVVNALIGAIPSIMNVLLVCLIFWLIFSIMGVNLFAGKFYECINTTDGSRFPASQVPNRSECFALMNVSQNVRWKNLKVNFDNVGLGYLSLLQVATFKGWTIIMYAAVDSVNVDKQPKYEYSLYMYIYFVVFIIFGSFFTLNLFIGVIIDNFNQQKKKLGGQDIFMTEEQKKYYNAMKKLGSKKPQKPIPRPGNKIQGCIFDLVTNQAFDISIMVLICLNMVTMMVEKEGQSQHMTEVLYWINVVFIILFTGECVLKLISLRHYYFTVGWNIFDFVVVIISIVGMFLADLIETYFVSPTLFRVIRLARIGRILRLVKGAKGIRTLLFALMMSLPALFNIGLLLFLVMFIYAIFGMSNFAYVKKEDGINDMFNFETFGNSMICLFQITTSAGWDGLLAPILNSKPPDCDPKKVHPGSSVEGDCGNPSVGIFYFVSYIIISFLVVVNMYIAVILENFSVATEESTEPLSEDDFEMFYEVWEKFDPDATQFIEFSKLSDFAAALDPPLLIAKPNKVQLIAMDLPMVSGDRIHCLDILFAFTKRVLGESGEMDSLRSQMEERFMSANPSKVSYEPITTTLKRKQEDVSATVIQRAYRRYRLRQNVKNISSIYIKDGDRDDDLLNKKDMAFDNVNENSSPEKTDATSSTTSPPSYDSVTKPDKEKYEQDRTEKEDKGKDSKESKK

IC50 | Compound
100 nM | CC1(Oc2ncc(-c3cc(F)c(C(=O)NS(C)(=O)=O)cc3Cl)cc2Cl)CCC1 [Example 602, 5-chloro-4-(5-chloro-6-((1-methylcyclobutyl)oxy)-3-pyridinyl)-2-fluoro-N-(methylsulfonyl)benzamide]
50.4 nM | COc1cc(C(=O)NS(C)(=O)=O)ccc1-c1cnc(Oc2cc(Cl)cc(OC(F)(F)F)c2)c(Cl)c1 [Example 372, 4-(5-chloro-6-(3-chloro-5-(trifluoromethoxy)phenoxy)-3-pyridinyl)-3-methoxy-N-(methylsulfonyl)benzamide]
59.9 nM | CS(=O)(=O)NC(=O)c1ccc(-c2cnc(Oc3cccc4ccccc34)c(Cl)c2)c(OC(F)F)c1 [Example 452, 4-(5-chloro-6-(1-naphthalenyloxy)-3-pyridinyl)-3-(difluoromethoxy)-N-(methylsulfonyl)benzamide]
84.6 nM | COc1cc(C(=O)NS(C)(=O)=O)ccc1-c1cnc(Oc2c(Cl)cccc2Cl)c(Cl)c1 [Example 581, 4-(5-chloro-6-(2,6-dichlorophenoxy)-3-pyridinyl)-3-methoxy-N-(methylsulfonyl)benzamide]
75.4 nM | CCC(CC)Oc1ncc(-c2cc(F)c(C(=O)NS(C)(=O)=O)cc2Cl)cc1Cl [Example 601, 5-chloro-4-(5-chloro-6-(1-ethylpropoxy)-3-pyridinyl)-2-fluoro-N-(methylsulfonyl)benzamide]
100 nM | COc1cc(C(=O)NS(C)(=O)=O)ccc1-c1cnc(Oc2cc(F)ccc2F)c(Cl)c1 [Example 363, 4-(5-chloro-6-(2,5-difluorophenoxy)-3-pyridinyl)-3-methoxy-N-(methylsulfonyl)benzamide]
98 nM | CS(=O)(=O)NC(=O)c1ccc(-c2cnc(Oc3cccc4ccccc34)c(Cl)c2)c(OC2COC2)c1 [Example 419, 4-(5-chloro-6-(1-naphthalenyloxy)-3-pyridinyl)-N-(methylsulfonyl)-3-(3-oxetanyloxy)benzamide]
55.1 nM | Cc1cc(C(=O)NS(C)(=O)=O)c(F)cc1-c1cnc(O[C@@H](C)c2cccc3ccccc23)c(Cl)c1 [Example 682, 4-(5-chloro-6-((1S)-1-(1-naphthalenyl)ethoxy)-3-pyridinyl)-2-fluoro-5-methyl-N-(methylsulfonyl)benzamide]
64.3 nM | COc1cc(C(=O)NS(C)(=O)=O)ccc1-c1cnc(Oc2cc(C)c(Cl)c(C)c2)c(Cl)c1 [Example 364, 4-(5-chloro-6-(4-chloro-3,5-dimethylphenoxy)-3-pyridinyl)-3-methoxy-N-(methylsulfonyl)benzamide]
146 nM | COc1cc(C(=O)NS(C)(=O)=O)c(F)cc1-c1cnc(N(C)C2CCC2)c(Cl)c1 [Example 697, 4-(5-chloro-6-(cyclobutyl(methyl)amino)-3-pyridinyl)-2-fluoro-5-methoxy-N-(methylsulfonyl)benzamide]
54 nM | COc1cc(C(=O)NS(C)(=O)=O)ccc1-c1cnc(Oc2cc(Cl)cc(Cl)c2)c(C(F)F)c1 [Example 382, 4-(6-(3,5-dichlorophenoxy)-5-(difluoromethyl)-3-pyridinyl)-3-methoxy-N-(methylsulfonyl)benzamide]
34.6 nM | Cc1c(Cl)cccc1Oc1ncc(-c2ccc(C(=O)NS(C)(=O)=O)cc2OC(F)F)cc1Cl [Example 586, 4-(5-chloro-6-(3-chloro-2-methylphenoxy)-3-pyridinyl)-3-(difluoromethoxy)-N-(methylsulfonyl)benzamide]

Compound | IC50
COc1cc(C(=O)NS(C)(=O)=O)ccc1-c1cnc(Oc2cccc(Cl)c2C)c(Cl)c1 [Example 579, 4-(5-chloro-6-(3-chloro-2-methylphenoxy)-3-pyridinyl)-3-methoxy-N-(methylsulfonyl)benzamide] | 48.6 nM

Same assay, conditions: in-vitro Nav 1.7 PX data

IC50 | Compound
104 nM | CC[C@@H](Oc1ncc(-c2cc(F)c(C(=O)NS(C)(=O)=O)cc2OC)cc1Cl)C(F)(F)F [Example 732, 4-(5-chloro-6-(((1R)-1-(trifluoromethyl)propyl)oxy)-3-pyridinyl)-2-fluoro-5-methoxy-N-(methylsulfonyl)benzamide, 4-(5-chloro-6-(((1S)-1-(trifluoromethyl)propyl)oxy)-3-pyridinyl)-2-fluoro-5-methoxy-N-(methylsulfonyl)benzamide]
16.1 nM | Cc1cc(Cl)cc(Cl)c1Oc1ncc(-c2cc(F)c(C(=O)NS(C)(=O)=O)cc2OC(F)F)cc1Cl [Example 782, 4-(5-chloro-6-(2,4-dichloro-6-methylphenoxy)-3-pyridinyl)-5-(difluoromethoxy)-2-fluoro-N-(methylsulfonyl)benzamide]
73.2 nM | CS(=O)(=O)NC(=O)c1cc(OC(F)F)c(-c2cnc(O[C@@H]3C[C@H]4CC[C@H]3C4)c(Cl)c2)cc1F [Example 783, 4-(6-((1S,2R,4S)-bicyclo[2.2.1]hept-2-yloxy)-5-chloro-3-pyridinyl)-5-(difluoromethoxy)-2-fluoro-N-(methylsulfonyl)benzamide]
58.7 nM | COc1cc(C(=O)NS(C)(=O)=O)c(F)cc1-c1cnc(OC2(C(F)(F)F)CCC2)c(Cl)c1 [Example 734, 4-(5-chloro-6-((1-(trifluoromethyl)cyclobutyl)oxy)-3-pyridinyl)-2-fluoro-5-methoxy-N-(methylsulfonyl)benzamide]
169 nM | COc1cccc(CSc2ncc(-c3cc(F)c(C(=O)NS(C)(=O)=O)cc3C)cc2Cl)c1 [Example 818, 4-(5-Chloro-6-((3-Methoxybenzyl)Thio)-Pyridin-3-yl)-2-Fluoro-5-Methyl-N-(Methylsulfonyl)Benzamide]
220 nM | COc1cc(C(=O)NS(C)(=O)=O)c(F)cc1-c1cnc(O[C@@H]2CC[C@H]2C)c(Cl)c1 [Example 733, 4-(5-chloro-6-(((1R,2R)-2-methylcyclobutyl)oxy)-3-pyridinyl)-2-fluoro-5-methoxy-N-(methylsulfonyl)benzamide, 4-(5-chloro-6-(((1S,2S)-2-methylcyclobutyl)oxy)-3-pyridinyl)-2-fluoro-5-methoxy-N-(methylsulfonyl)benzamide]
73.4 nM | CS(=O)(=O)NC(=O)c1ccc(-c2cnc(Oc3c(F)ccc(F)c3F)c(Cl)c2)c(Cl)c1 [Example 778, 3-chloro-4-(5-chloro-6-(2,3,6-trifluorophenoxy)-3-pyridinyl)-N-(methylsulfonyl)benzamide]
36.7 nM | COc1cc(C(=O)NS(C)(=O)=O)c(F)cc1-c1cnc(Oc2c(Cl)cccc2Cl)c(Cl)c1 [Example 764, 4-(5-chloro-6-(2,6-dichlorophenoxy)-3-pyridinyl)-2-fluoro-5-methoxy-N-(methylsulfonyl)benzamide]
87.2 nM | COc1cc(C(=O)NS(C)(=O)=O)c(F)cc1-c1cnc(NCC2CCC(C)(C)CC2)c(Cl)c1 [Example 721, 4-(5-chloro-6-(((4,4-dimethylcyclohexyl)methyl)amino)-3-pyridinyl)-2-fluoro-5-methoxy-N-(methylsulfonyl)benzamide]
8350 nM | 4-(3-Chloro-4′-Methoxy-2′-Methyl-[2,3′-Bipyridin]-5-yl)-2-Fluoro-5-Methyl-N-(Methyl Sulfonyl)Benzamide [Example 840]

Compound | IC50
COc1cc(C(=O)NS(C)(=O)=O)c(F)cc1-c1cnc(Oc2cc(F)ccc2F)c(Cl)c1 [Example 706, 4-(5-chloro-6-(2,5-difluorophenoxy)-3-pyridinyl)-2-fluoro-5-methoxy-N-(methylsulfonyl)benzamide] | 130 nM
